Source: patent US5011992A, “Pharmacologically active substituted benzamides” (Bristol-Myers Squibb Company, priority 1989, dated 1991)
Where a name gives a salt, the structure may show the parent alone.

target: T1, dopaminergic (D2) receptors (Rattus norvegicus, UniProt P61169); assay: 3H-Spiperone Displacement (striatal rat brain homogenates); type: binding; conditions: rat striatal homogenate, approx. 100 pM 3H-spiperone, 37° C., 15 min
T1 construct: Homogenates (Brinkmann Polytron) of the corpus striatum in cold HEPES.KOH buffer; from tissue; host or cells: rat corpus striatum (washed membrane homogenate; rats from Charles River)
T1 sequence (P61169 whole entry): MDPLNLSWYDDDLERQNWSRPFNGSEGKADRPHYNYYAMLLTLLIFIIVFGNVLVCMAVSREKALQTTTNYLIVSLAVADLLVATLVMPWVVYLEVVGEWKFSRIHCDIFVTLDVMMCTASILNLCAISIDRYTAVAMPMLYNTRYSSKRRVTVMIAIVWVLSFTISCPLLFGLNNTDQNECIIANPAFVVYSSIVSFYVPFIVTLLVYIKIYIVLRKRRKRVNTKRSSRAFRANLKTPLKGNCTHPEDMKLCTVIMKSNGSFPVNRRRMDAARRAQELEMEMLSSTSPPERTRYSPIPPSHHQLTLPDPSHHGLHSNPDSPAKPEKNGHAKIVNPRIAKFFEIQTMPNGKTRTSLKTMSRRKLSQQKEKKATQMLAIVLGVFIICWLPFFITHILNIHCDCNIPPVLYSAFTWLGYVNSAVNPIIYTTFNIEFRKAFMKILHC
Method: (A) ^3 H-Spiperone Displacement
Rats (150±10 g; Charles River) were decapitated, the corpus striatum dissected out and frozen on dry ice. The tissues were pooled and stored at -80° C. until used. Homogenates (Brinkmann Polytron) of the corpus striatum in cold HEPES.KOH buffer (final pH=7.4) were centrifuged at 39,000× G. The supernatant was discarded and the pellets were re-suspended in HEPES.KOH buffer and re-centrifuged as above.
Tests to determine the Inhibitory Concentration50 (IC50) of the compounds of Formula I and reference compounds versus ^3 H-spiperone were conducted as follows. Tubes containing either 100 μL of buffer mixture (for total binding), 100 μL of buffer mixture plus 100 μL of 10^-4 M D(+)-butaclamol (for blanks, i.e. non-specific binding), or 100 μL of buffer mixture containing 10^-7, 10^-6 or 10^-5 M test compound were prepared. To each were added 100 μL of a solution of ^3 H-spiperone (New England Nuclear) in buffer mixture (2000 c.p.m. in the incubation mixture) and 800 μL of the striatal tissue suspension. The tubes were then diluted to 1 mL with buffer mixture, giving a final concentration of 10^-8, 10^-7 or 10^-6 M test compound and approximately 100 pM ^3 H-spiperone. The samples were incubated at 37° C. for 15 minutes, filtered in vacuo on glass fiber filters and counted by liquid scintillation spectrometry. […] All samples were run in duplicate.

| Structure (SMILES) | IC50 |
| --- | --- |
| CCN(CC)CCNC(=O)c1cc(Cl)c(N)cc1OCC(=O)OC [Example 15, 4-Amino-5-chloro-N-[2-(diethylamino)ethyl]-2-(2-methoxy-2-oxoethoxy)benzamide] | > 1000 nM |
| CCN(CC)CCNC(=O)c1cc(Cl)c(N)cc1OCC1COC(C)(C)O1 (stereo not drawn) [Example 18, 4-Amino-5-chloro-N-[2-(diethylamino)ethyl]-2-(2,2-dimethyl-1,3-dioxalan-4-yl)methoxybenzamide] | > 1000 nM |
| CCN(CC)CCNC(=O)c1cc(Cl)c(N)cc1OCc1cc(C)no1 [Example 19, 4-Amino-5-chloro-N-[2-(diethylamino)ethyl]-2-(3-methylisoxazol-5-yl)methoxybenzamide] | > 1000 nM |
| C=CCC(Oc1cc(N)c(Cl)cc1C(=O)NCCN(CC)CC)C(C)=O (stereo not drawn) [Example 24, 4-Amino-5-chloro-N-[2-(diethylamino)ethyl]-2-(5-hexen-2-on-3-yl)-oxybenzamide hydrochloride] | > 1000 nM |
| CCC(Oc1cc(N)c(Cl)cc1C(=O)NCCN(CC)CC)C(C)=O (stereo not drawn) [Example 25, 4-Amino-5-chloro-N-[2-(diethylamino)ethyl]-2-(pentan-2-on-3-yl)-oxybenzamide] | > 1000 nM |
| CCC(=O)COc1cc(N)c(Cl)cc1C(=O)NCCN(CC)CC [Example 26, 4-Amino-2-(2-butanon-1-yl)oxy-5-chloro-N-[2-(diethylamino)-ethyl]benzamide] | > 1000 nM |
| CCCC(=O)COc1cc(N)c(Cl)cc1C(=O)NCCN(CC)CC [Example 27, 4-Amino-5-chloro-N-[2-(diethylamino)ethyl]-2-(pentan-2-on-1-yl)oxybenzamide] | > 1000 nM |
| CCC(=O)C(C)Oc1cc(N)c(Cl)cc1C(=O)NCCN(CC)CC (stereo not drawn) [Example 28, 4-Amino-5-chloro-2-(pentan-3-on-2-yl)oxy-N-(2-diethylaminoethyl)benzamide hydrochloride] | > 1000 nM |
| CCN(CC)CCNC(=O)c1cc(Cl)c(N)cc1OCC(=O)C(C)C [Example 29] | > 1000 nM |
| CCN(CC)CCNC(=O)c1cc(Cl)c(N)cc1OCC(=O)Cc1ccccc1 [Example 30] | > 1000 nM |
| CCN(CC)CCNC(=O)c1cc(Cl)c(N)cc1OC(C)(C)C(C)=O [Example 31, 4-Amino-5-chloro-N-2-(diethylamino)ethyl]-2-[(3-methyl)butan-2-on-3-yl]oxybenzamide monohydrate] | > 1000 nM |
| CCN(CC)CCNC(=O)c1cc(Cl)c(N)cc1OCC(O)Cc1ccccc1 (stereo not drawn) [Example 33, 4-Amino-5-chloro-N-[2-(diethylamino)ethyl]-2-[2-(2-hydroxy-3-phenylpropyl)]oxybenzamide] | > 1000 nM |
| CCN(CC)CCNC(=O)c1cc(Cl)c(N)cc1OCC1OCCO1 [Example 43] | > 1000 nM |
| CCN(CC)CCNC(=O)c1cc(Cl)c(N)cc1OCc1ccccn1 [Example 45, 4-Amino-5-chloro-N-[2-(diethylamino)ethyl]-2-(2-pyridinomethyl)-oxybenzamide] | > 1000 nM |
| CCN(CC)CCNC(=O)c1cc(Cl)c(N)cc1OCCOCCOC [Example 46, 4-Amino-5-chloro-N-[2-(diethylamino)ethyl]-2-(2-methoxyethoxyethyl)oxybenzamide] | > 1000 nM |
| CCN(CC)CCNC(=O)c1cc(Cl)c(N)cc1OCC1=NCCN1 [Example 51, 4-Amino-5-chloro-N-[2-(diethylamino)ethyl]-2-(1H-4,5-dihydroimidazol-2-yl)methoxybenzamide] | > 1000 nM |
| CCN(CC)CCNC(=O)c1cc(Cl)c(N)cc1OCCC1(C)OCCO1 [Example 54] | > 1000 nM |

Second part, the compound after the results:

| IC50 | Structure (SMILES) |
| --- | --- |
| > 1000 nM | CCN(CC)CCNC(=O)c1cc(Cl)c(N)cc1OC(C)C(C)O (mixture of isomers) [Example 41, 4-Amino-5-chloro-N-2-(diethylamino)ethyl]-2-[(2-hydroxy)but-3-yl]oxybenzamide (mixture of threo and erythro isomers)] |
| > 1000 nM | CCN(CC)CCNC(=O)c1cc(Cl)c(N)cc1OCCOC [Example 1, 4-Amino-5-chloro-N-[2-(diethylamino)ethyl]-2-(2-methoxyethoxy)-benzamide] |
| > 1000 nM | CCN(CC)CCNC(=O)c1cc(Cl)c(N)cc1OCCO [Example 2, 4-Amino-5-chloro-N-[2-(diethylamino)ethyl]-2-(2-hydroxyethoxy)benzamide] |
| > 1000 nM | CCN(CC)CCNC(=O)c1cc(Cl)c(N)cc1OCC(OC)OC [Example 3] |
| > 1000 nM | CCN(CC)CCNC(=O)c1cc(Cl)c(N)cc1OCOCCOC [Example 4] |
| > 1000 nM | CCN(CC)CCNC(=O)c1cc(Cl)c(N)cc1OCC(C)=O [Example 5, 4-Amino-5-chloro-N-[2-(diethylamino)ethyl]-2-(2-propanon-1-yl)-oxybenzamide] |
| > 1000 nM | CCN(CC)CCNC(=O)c1cc(Cl)c(N)cc1OCC(=O)c1ccccc1 [Example 6, 4-Amino-2-(2-phenyl-2-oxoethoxy)-5-chloro-N-[2-(diethylamino)ethyl]benzamid] |
| > 1000 nM | CCN(CC)CCNC(=O)c1cc(Cl)c(N)cc1OC(C)C(C)=O (stereo not drawn) [Example 7, 4-Amino-2-(butan-2-on-3-yl)oxy-5-chloro-N-[2-(diethylamino)-ethyl]benzamide] |
| > 1000 nM | CCN(CC)CCNC(=O)c1cc(Cl)c(N)cc1OC1CCCCC1=O (stereo not drawn) [Example 9, 4-Amino-5-chloro-2-(cyclohexanon-2-yl)oxy-N-[2-(diethylamino)ethyl]benzamide] |
| > 1000 nM | CCN(CC)CCNC(=O)c1cc(Cl)c(N)cc1OCC(C)=NO [Example 10, 4-Amino-5-chloro-N-[2-(diethylamino)ethyl]-2-[(2-hydroxyimino)propan-1-yl]oxybenzamide] |
| > 1000 nM | CCN(CC)CCNC(=O)c1cc(Cl)c(N)cc1OCC(C)O (stereo not drawn) [Example 12, 4-Amino-5-chloro-N-[2-(diethylamino)ethyl]-2-(2-hydroxypropan-1-yl)oxybenzamide] |
| > 1000 nM | CCN(CC)CCNC(=O)c1cc(Cl)c(N)cc1OCC#N [Example 13, 4-Amino-5-chloro-2-cyanomethoxy-N-[2-(diethylamino)ethyl]benzamide] |
| > 1000 nM | CCN(CC)CCNC(=O)c1cc(Cl)c(N)cc1OC(C)C#N (stereo not drawn) [Example 14] |
